The numbers were not newly measured in patent publication US20080003592A1, “Method for conducting pharmacogenomics-based studies” (priority 2003, published 2008), which cites them from elsewhere.

Counter-ions that a name gives are not always drawn.

For data set [1] the following is noted: advanced colorectal cancer.
For data set [2] the following is noted: depending on the regimen.

As to `O=c1[nH]cc(F)c(=O)[nH]1` [5-fluorouracil], the “patients with an objective response to the drug” value in data set [1] (standard therapy) is 20-40%. The “patients with a complete response (complete tumor disappearance)” value in data set [1] (of the patients with an objective response) is listed as 1-5%. In addition, the “patients suffering serious gastrointestinal or hematopoietic toxicity” value in data set [2] is reported as 20-30%.

For the molecule `Nc1c2c(nc3ccccc13)CCCC2` [Cognex, tacrine hydrochloride], where the note is “Alzheimer's patients receiving Cognex, controls about 33%”, the patients minimally improved result is given as “About 58%”. Also, the “patients showing no change or minimal worsening of their disease” value (patients receiving Cognex for Alzheimer's disease, controls about 68%) is on record as “about 45%”. The patients much improved entry (patients receiving Cognex, controls about 1%) is reported as “about 2%”.
